In this test the target is T1, human recombinant dopamine D4.2 receptor (Homo sapiens, UniProt P21917, DEL265-296).
T1 construct: expressed in transfected cells
T1 sequence (P21917 with tags, fused parts or gaps DEL265-296): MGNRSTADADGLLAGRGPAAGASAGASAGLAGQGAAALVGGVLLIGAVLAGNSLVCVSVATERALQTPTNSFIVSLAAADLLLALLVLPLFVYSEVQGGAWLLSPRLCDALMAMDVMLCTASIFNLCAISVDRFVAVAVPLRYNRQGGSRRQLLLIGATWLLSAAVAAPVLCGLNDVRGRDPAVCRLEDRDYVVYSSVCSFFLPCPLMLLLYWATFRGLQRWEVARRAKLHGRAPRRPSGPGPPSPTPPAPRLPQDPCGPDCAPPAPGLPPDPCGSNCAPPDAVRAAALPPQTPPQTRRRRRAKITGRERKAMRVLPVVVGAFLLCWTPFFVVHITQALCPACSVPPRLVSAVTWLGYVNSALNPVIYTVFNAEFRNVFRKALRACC
The test is described as follows: [3H]spiperone receptor binding assay, human dopamine D4.2, CHO K1 cell membranes.

This is an account of results in US6177422A (Warner-Lambert Company, priority 1998, dated 2001).

With `O=C1COc2ccc(CN3CCN(c4ccc(C(F)(F)F)cc4)CC3)cc2N1` [Example 31, 6-[4-(4-Trifluoromethyl-phenyl)-piperazin-1-ylmethyl]-4H-benzo[1,4]oxazin-3-one], the Ki turned out to be 173 nM.
For `Cc1ccc(C2CCN(Cc3ccc4c(c3)NC(=O)CO4)CC2)cc1` [Example 16, 6-(4-p-Tolyl-piperidin-1-ylmethyl)-4H-benzo[1,4]oxazin-3-one], the Ki turned out to be 2.84 nM.
